In experiment [1] the test system is Raji Burkitt lymphoma cells. The experiment can be described thus: Xenograft of tumors derived from Raji Burkitt lymphoma cells in nude mice. Format: in vivo. The conditions noted are these: versus vehicle. As to the method: (§1) The in vivo effects of a few selected agents have been evaluated in mouse xenograft models and found to be effective. Protocols follow those described in the literature.^4
(§2) Mice were transplanted with cultured tumor cells and after an incubation period (typically 8-12 days), mice were left untreated or were treated daily with a 30 mg/kg dose of the test compound. Tumor volumes were measured with calipers over […] of treatment. Tumors were excised and weighed at the end of treatment. In some experiments the mice were co-treated daily with a 30 mg/kg dose of the test compound and 5 mg/kg of metformin.
In a separate experiment, this same compound was used in a study using implanted tumors derived from Raji Burkitt lymphoma cells, implanted into nude mice and treated as before with vehicle, with SR-11431, or with SR-11431 plus metformin.

For experiment [2], the system named is Raji (Burkitt's) lymphoma cells. Description: MTT assay for 4-day viability of Raji (Burkitt's) lymphoma cells. It is filed as cell-based. The following applies: Homo sapiens, 96 h, Raji cells (highly express MCT1), estimated values, read-out: approximate potency (EC50 nM). The text has this: Specific Examples of compounds of the invention, with estimated EC50 values determined using an MTT assay for 4-day viability of Raji (Burkitt's) lymphoma cells, a cell line known to highly express MCT1 and to be sensitive to small molecule MCT inhibitors,^4 are shown in Table 3. Assay protocols follow those described in the literature.^4 Other assays that are not described here but that are standard in the field, such as an assay for competitive inhibition of transport of radiolabeled lactic acid, an MCT substrate, may also be useful in establishing mechanism of action of these compounds.

Experiment [3] has as its system T47D tumor cells. The experiment can be described thus: Mouse xenograft experiment using T47D tumor cells. It is filed as in vivo, mice. The following applies: 30 mg/kg daily. As to the method: as §1, §2

`CC(C)Cn1c(=O)n(C)c(=O)c2nc(CCCCCO)c(COc3cccc4cnccc34)nc21` [Example 3, 6-(5-hydroxypentyl)-1-isobutyl-7-((isoquinolin-5-yloxy)methyl)-3-methylpteridine-2,4(1H,3H)-dione]: in experiment [1] (30 mg/kg daily (co-treatment: plus 5 mg/kg metformin), 30-day time course), the “tumor volume over time” value is reported as “Reduction of tumor volume over time”. Further, the final tumor weight entry in experiment [1] (end of treatment (day 32)) is given as “not significantly changed”. The EC50 in experiment [2] is less than 50 nM. Further, the tumor volume result in experiment [3] (versus vehicle) is given as “significant reduction of tumor volume”. The final tumor mass result in experiment [3] (versus vehicle treated animals, end of treatment) was “reduction in final tumor mass”.
With `CC(C)Cn1c(=O)n(C)c(=O)c2nc(CCCCCO)c(COc3ccc(Br)cc3Br)nc21` [Example 19, 7-((2,4-dibromophenoxy)methyl)-6-(5-hydroxypentyl)-1-isobutyl-3-methylpteridine-2,4(1H,3H)-dione], the EC50 in experiment [2] is no more than 250 nM.
For the molecule `CC(C)Cn1c(=O)n(C)c(=O)c2nc(CCCCCO)c(COc3ccc4cccnc4c3)nc21` [Example 20, 6-(5-hydroxypentyl)-1-isobutyl-3-methyl-7-((quinolin-7-yloxy)methyl)pteridine-2,4(1H,3H)-dione], in experiment [2], the concentration giving a half-maximal response (EC50) was no more than 250 nM.
On to `CC(C)Cn1c(=O)n(C)c(=O)c2nc(CCCCCO)c(COc3ccc(Cl)cc3Br)nc21` [Example 21, 7-((2-bromo-4-chlorophenoxy)methyl)-6-(5-hydroxypentyl)-1-isobutyl-3-methylpteridine-2,4(1H,3H)-dione], for which, in experiment [2], the EC50 was no more than 250 nM.
As to `CC(C)Cn1c(=O)n(C)c(=O)c2nc(CCCCCO)c(COc3ccc(C(F)(F)F)cc3)nc21` [Example 22, 6-(5-hydroxypentyl)-1-isobutyl-3-methyl-7-((4-(trifluoromethyl)phenoxy)methyl)pteridine-2,4(1H,3H)-dione], the EC50 in experiment [2] is no more than 250 nM.
Turning to `CC(C)Cn1c(=O)n(C)c(=O)c2nc(CCCCCO)c(COc3ccccc3-c3ccccc3)nc21` [Example 23, 7-(([1,1′-biphenyl]-2-yloxy)methyl)-6-(5-hydroxypentyl)-1-isobutyl-3-methylpteridine-2,4(1H,3H)-dione], the EC50 in experiment [2] was no more than 250 nM.
Turning to `CC(C)Cn1c(=O)n(C)c(=O)c2nc(CCCCCO)c(COc3cc(F)ccc3Br)nc21` [Example 24, 7-((2-bromo-5-fluorophenoxy)methyl)-6-(5-hydroxypentyl)-1-isobutyl-3-methylpteridine-2,4(1H,3H)-dione], the half-maximal effective concentration (EC50) in experiment [2] was no more than 250 nM.
Turning to `CC(C)Cn1c(=O)n(C)c(=O)c2nc(CCCCCO)c(COc3cccc4ccncc34)nc21` [Example 25, 6-(5-hydroxypentyl)-1-isobutyl-7-((isoquinolin-8-yloxy)methyl)-3-methylpteridine-2,4(1H,3H)-dione], in experiment [2], the EC50 was no more than 250 nM.
The same measure, in the same setting: for `CC(C)Cn1c(=O)n(C)c(=O)c2nc(CCCCCO)c(COc3cccc4cccnc34)nc21` [Example 26, 6-(5-hydroxypentyl)-1-isobutyl-3-methyl-7-((quinolin-8-yloxy)methyl)pteridine-2,4(1H,3H)-dione] the value was no more than 500 nM; for `CC(C)Cn1c(=O)n(C)c(=O)c2nc(CCCCCO)c(COc3cc4ccccc4cn3)nc21` [Example 27, 6-(5-hydroxypentyl)-1-isobutyl-7-((isoquinolin-3-yloxy)methyl)-3-methylpteridine-2,4(1H,3H)-dione], no more than 500 nM; for `CC(C)Cn1c(=O)n(C)c(=O)c2nc(CCCCCO)c(COc3ccncc3)nc21` [Example 28, 6-(5-hydroxypentyl)-1-isobutyl-3-methyl-7-((pyridin-4-yloxy)methyl)pteridine-2,4(1H,3H)-dione], no more than 1000 nM.
Turning to `CC(C)Cn1c(=O)n(C)c(=O)c2nc(CCCCCO)c(COc3c(Br)cc(Br)c4cnccc34)nc21` [Example 29, 7-(((6,8-dibromoisoquinolin-5-yl)oxy)methyl)-6-(5-hydroxypentyl)-1-isobutyl-3-methylpteridine-2,4(1H,3H)-dione], the EC50 in experiment [2] was no more than 1000 nM.
Same read-out and setting: for `CC(C)Cn1c(=O)n(C)c(=O)c2nc(CCCCCO)c(COc3cccc4nccnc34)nc21` [Example 30, 6-(5-hydroxypentyl)-1-isobutyl-3-methyl-7-((quinoxalin-5-yloxy)methyl)pteridine-2,4(1H,3H)-dione] the value was no more than 1000 nM.
Consider `CC(C)Cn1c(=O)n(C)c(=O)c2nc(CCCCCO)c(COc3cccnc3)nc21` [Example 31, 6-(5-hydroxypentyl)-1-isobutyl-3-methyl-7-((pyridin-3-yloxy)methyl)pteridine-2,4(1H,3H)-dione], for which the EC50 in experiment [2] was no more than 1000 nM.
As for `CC(C)Cn1c(=O)n(C)c(=O)c2nc(CCCCCO)c(COc3cccc([N+](=O)[O-])c3)nc21` [Example 32, 6-(5-hydroxypentyl)-1-isobutyl-3-methyl-7-((3-nitrophenoxy)methyl)pteridine-2,4(1H,3H)-dione], the EC50 in experiment [2] was no more than 1000 nM.
In the case of `CC(C)Cn1c(=O)n(C)c(=O)c2nc(CCCCCO)c(COc3cccc(N)c3)nc21` [Example 33, 7-((3-aminophenoxy)methyl)-6-(5-hydroxypentyl)-1-isobutyl-3-methylpteridine-2,4(1H,3H)-dione], in experiment [2], the concentration giving a half-maximal response (EC50) was no more than 100 nM.
With `CC(C)Cn1c(=O)n(C)c(=O)c2nc(CCCCCO)c(COc3ccccc3C#N)nc21` [Example 34, 2-((6-(5-hydroxypentyl)-1-isobutyl-3-methyl-2,4-dioxo-1,2,3,4-tetrahydropteridin-7-yl)methoxy)benzonitrile], the EC50 in experiment [2] was no less than 2000 nM.
In the case of `CC(C)Cn1c(=O)n(C)c(=O)c2nc(CCc3ccccc3CO)c(COc3cccc4ccccc34)nc21` [Example 35, 6-(2-(hydroxymethyl)phenethyl)-1-isobutyl-3-methyl-7-((naphthalen-1-yloxy)methyl)pteridine-2,4(1H,3H)-dione], the concentration for a half-maximal effect (EC50) in experiment [2] was no more than 100 nM.

Broadly, the EC50 is the concentration needed to bring the measured effect to its halfway point.
